{
  "source": "paper PMC5711494",
  "about": "“Sterol methyltransferase a target for anti-amoeba therapy: towards transition state analog and suicide substrate drug design” (Journal of Lipid Research, 2017)",
  "key": {"[1]": {"tested_on": "Ac24-SMT", "assay": "Covalent labeling of Ac24-SMT with DHL and 3H-SAM, SDS-PAGE gel slice counting", "assay_type": "binding, Acanthamoeba castellanii", "conditions": "45 min, 35°C, SDS-PAGE gel slices", "procedure": "For 24-SMT labeling, partially pure recombinant enzyme obtained from 0.25 salt gradient fraction after Q-chromatography and desalted with buffer exchange (as reported in reference) was generated as a reference specimen of cloned SMT migrating at ∼39 kDa indicated by a protein ladder (Bio-Rad). Protein was stained with Coomassie Brilliant Blue R 250. […] After filtration and concentration, 22 µg total protein was loaded on 12% SDS-PAGE gel against a protein ladder (Bio-Rad) that ranged from 15 to 100 kDa. Next, five bands were excised from the gel corresponding to approximate molecular masses that range between 1) 15–25 kDa, 2) 25–35 KDa, 3) 35–45 kDa, 4) 45–55 kDa, and 5) 55–75 kDa, placed into a vial of 50% hydrogen peroxide, and left overnight at 60°C for digestion ([29]). To these vials was added scintillant and the radioactivity (^3H in dpm) measured by liquid scintillation counting."}, "[2]": {"tested_on": "Acanthamoeba castellanii trophozoites sterol biosynthesis", "assay": "Sterol composition of treated Ac trophozoites (GC/MS)", "assay_type": "cell-based", "conditions": "15 µM, 24 h", "procedure": "Amoeba and HEK cells were harvested at one or more points during growth in the presence and absence of steroidal inhibitor and azole at IC50 or MACs of the inhibitor or at 40 µM for HEK cells. Cell pellets were split with an internal standard of known amounts of 5α-cholestane added to one of the cell pellets for determination of sterol amounts in cells. Cells were saponified directly in aqueous methanolic potassium hydroxide at the reflux temperature for 1 h, which yielded total sterol (free plus sterol released from ester bonds). The resulting neutral lipids obtained by dilution with water and extraction with hexane (Fisher) were analyzed by GC/MS or HPLC-equipped with a diode array detector against cholesterol as a chromatographic reference. GC and HPLC retention times of sterols were compared with those obtained from authentic standards in our steroid collection ([18]–[22]). To determine the trophozoite sterol metabolome, GC/MS analysis of cell pellet nonsaponfiables was typically carried out using control cultures incubated in 5 ml medium in 25 ml T-flasks inoculated with 1 × 10^4 trophozoites/ml and cultured for 72 h. To generate significant cell pellets for sterol analysis of treated cells, trophozoites were cultured in 10 ml medium in 25 ml T-flasks inoculated with 1 × 10^5 cells/ml and grown for 48 h."}, "[3]": {"target": "Ac28-SMT (sterol 28-methyltransferase, SMT2) (Acanthamoeba castellanii, UniProt L8GKC5)", "sequence (L8GKC5 entry or part of it)": "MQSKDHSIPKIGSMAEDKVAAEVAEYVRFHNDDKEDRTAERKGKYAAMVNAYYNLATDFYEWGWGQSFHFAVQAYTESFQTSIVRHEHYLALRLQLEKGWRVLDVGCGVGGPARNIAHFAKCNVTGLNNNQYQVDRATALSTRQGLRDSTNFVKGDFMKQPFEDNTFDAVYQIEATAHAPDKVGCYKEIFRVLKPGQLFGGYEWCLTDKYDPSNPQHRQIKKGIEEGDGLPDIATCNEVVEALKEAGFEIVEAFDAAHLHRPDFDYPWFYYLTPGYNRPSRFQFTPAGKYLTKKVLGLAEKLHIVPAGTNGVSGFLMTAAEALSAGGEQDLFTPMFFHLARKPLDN", "assay": "Inhibition of recombinant Ac28-SMT assayed with native substrate 24(28)-methylene lophenol and [methyl-3H3]SAM", "assay_type": "biochemical", "procedure": "(§1) The SMT constructs were transformed into competent BL21(DE3) cells and transformants selected against 100 µg/ml ampicillin. Expression of the SMT constructs and partial purification of the recombinant proteins followed the procedure described previously ([19]). Briefly, a single colony for 24-SMT and 28-SMT were grown overnight in an orbital shaker (250–300 rpm) at 37°C in Luria broth containing ampicillin and then reinoculated in fresh medium at 1 in 10 dilution. […] In one tube, cells were induced by addition of isopropyl thio-galactoside at a final concentration of 1 mM and in the other tube, were un-induced. Cells were harvested 2 and 4 h after induction and an equal number of cells (as calculated by OD @600 nm) from induced (+) and un-induced (−) cultures were boiled with 1X Laemmli’s buffer and analyzed by SDS-PAGE (12%). […] Total protein concentrations were determined by Bradford dye-binding procedure with bovine γ-globulin as standard. […] Incubation mixtures were saponified with methanolic potassium hydroxide and extracted with hexane (3 × 1 ml) and concentrated to dryness providing the nonsaponifiable lipid fraction; radioactivity was determined by liquid scintillation counting. […] Controls containing radioactive SAM and no sterol used to background subtract radioactivity in these treatments was less than 500 dpm. […]"}, "[4]": {"tested_on": "Ac24-SMT", "assay": "Substrate kinetics and product analysis with recombinant Ac24-SMT", "assay_type": "biochemical, Acanthamoeba castellanii", "procedure": "The SMT constructs were transformed into competent BL21(DE3) cells and transformants selected against 100 µg/ml ampicillin. Expression of the SMT constructs and partial purification of the recombinant proteins followed the procedure described previously ([19]). […] In one tube, cells were induced by addition of isopropyl thio-galactoside at a final concentration of 1 mM and in the other tube, were un-induced. Cells were harvested 2 and 4 h after induction and an equal number of cells (as calculated by OD @600 nm) from induced (+) and un-induced (−) cultures were boiled with 1X Laemmli’s buffer and analyzed by SDS-PAGE (12%). Gel was stained with Coomassie Brilliant Blue (0.2%) to establish the molecular weight and purity of the expressed protein. Total protein concentrations were determined by Bradford dye-binding procedure with bovine γ-globulin as standard. To determine the catalytic activity of the recombinant proteins, enzyme assays were carried out using soluble bacterial extract (100,000 g fraction) in 9 ml test tubes containing a total of 600 µl assay volume for 45 min (initial velocity conditions). The assay buffer contained 20 mM phosphate buffer in 5% (v/v) glycerol at pH 7.5, sterol acceptor emulsified in 12 µl Tween 80 (1.2 g/l), and the substrate tested over the concentration range 5 to 150 µM against 1.2 mg of total protein. The reaction was initiated by the addition of saturating levels of [methyl-^3H3]SAM, 0.9 µCi, at 150 µM. Incubation mixtures were saponified with methanolic potassium hydroxide and extracted with hexane (3 × 1 ml) and concentrated to dryness providing the nonsaponifiable lipid fraction; radioactivity was determined by liquid scintillation counting. […]"}, "[5]": {"target": "Ac24-SMT (sterol 24-methyltransferase, SMT1) (Acanthamoeba castellanii, UniProt L8GNG7)", "sequence (L8GNG7 entry or part of it)": "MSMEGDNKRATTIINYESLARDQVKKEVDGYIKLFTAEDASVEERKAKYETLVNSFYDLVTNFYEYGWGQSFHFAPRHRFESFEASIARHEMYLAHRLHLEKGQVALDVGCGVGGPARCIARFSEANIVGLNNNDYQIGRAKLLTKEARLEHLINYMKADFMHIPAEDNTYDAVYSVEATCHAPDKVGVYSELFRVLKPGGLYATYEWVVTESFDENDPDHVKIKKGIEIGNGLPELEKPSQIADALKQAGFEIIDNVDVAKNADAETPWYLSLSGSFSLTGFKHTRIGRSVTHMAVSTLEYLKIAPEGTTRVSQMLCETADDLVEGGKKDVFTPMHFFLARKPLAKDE", "assay": "Inhibition of recombinant Ac24-SMT assayed with native substrate cycloartenol and [methyl-3H3]SAM", "assay_type": "biochemical", "conditions": "read-out: Ki against 24-SMT (competitive inhibitor); assayed with natural substrate", "procedure": "as §1"}},
  "data": [
    {"smiles": "CC(CCC=C1CC1)C1CC[C@@]2(C)C3=C(CCC12C)C1(C)CCC(O)C(C)(C)C1CC3", "note": "(stereo partly drawn) [DHL, 26,27-dehydrolanosterol]", "values": [
      {"measurement": "radioactivity associated with protein band of ∼39 kDa", "setting": "[1]", "value": "< 90", "unit": "%"},
      {"measurement": "effect on sterol composition", "setting": "[2]", "value": "minimal effect"},
      {"measurement": "kinact/Ki against 28-SMT", "setting": "[3]", "value": "effectively zero"},
      {"measurement": "Ki", "setting": "[3]; read-out: Ki against 28-SMT (competitive inhibitor), assayed with natural substrate", "value": 54, "unit": "µM"},
      {"measurement": "difference in catalytic competence (kcat/Km) from the natural substrate of 24-SMT", "setting": "[4]", "value": "greater than 10 fold"},
      {"measurement": "conversion by Ac24-SMT to product P1 (C26-monol)", "setting": "[4]; GC/MS, saturating cosubstrates", "value": 3, "unit": "%"},
      {"measurement": "conversion by Ac24-SMT to product P2 (C26-diol)", "setting": "[4]; GC/MS, saturating cosubstrates", "value": 1, "unit": "%"},
      {"measurement": "Km (Michaelis / binding constant) as substrate of Ac24-SMT", "setting": "[4]; saturating SAM 150 µM, initial velocity conditions", "value": "~33", "unit": "µM"},
      {"measurement": "Ki", "setting": "[5]", "value": 16, "unit": "µM"}
    ]}
  ]
}
